Legend:
Type in all cases: functional, cell-based
MM1.S = assay: Antiproliferative activity against human MM1.S cells assessed as inhibition of cell growth incubated for 4 hrs by CCK-8 assay
YT = assay: Antiproliferative activity against human YT cells assessed as inhibition of cell growth incubated for 4 hrs by CCK-8 assay
[1] = Antiproliferative activity against human Mutu-1 cells assessed as inhibition of cell growth incubated for 4 hrs by CCK-8 assay; conditions: Mutu-1, 4 h
[2] = Antiproliferative activity against human JB-6 cells assessed as inhibition of cell growth incubated for 4 hrs by CCK-8 assay; conditions: JB6, 4 h
[3] = Antiproliferative activity against human VAL cells assessed as inhibition of cell growth incubated for 4 hrs by CCK-8 assay
H9 = assay: Antiproliferative activity against human H9 cells assessed as inhibition of cell growth incubated for 4 hrs by CCK-8 assay; conditions: H9, 4 h
[4] = Antiproliferative activity against human MINO cells assessed as inhibition of cell growth incubated for 4 hrs by CCK-8 assay
[5] = Antiproliferative activity against human Rael cells assessed as inhibition of cell growth incubated for 4 hrs by CCK-8 assay
NAMALVA = assay: Antiproliferative activity against human NAMALVA cells assessed as inhibition of cell growth incubated for 4 hrs by CCK-8 assay

| Compound | IC50 (MM1.S) | further results |
| --- | --- | --- |
| Cc1cn(/C=C(/C(N)=O)c2cncnc2)nc1-c1cc(C(F)(F)F)cc(C(F)(F)F)c1 | 2070 nM |  |
| CS(=O)(=O)Nc1cc(C#N)cc(/C(=C\n2cnc(-c3cc(C(F)(F)F)cc(C(F)(F)F)c3)n2)C(N)=O)c1 | 833 nM |  |
| CCOc1ccc(/C(=C\n2cnc(-c3cc(C(F)(F)F)cc(C(F)(F)F)c3)n2)C(N)=O)c(F)c1F | > 10000 nM |  |
| NC(=O)/C(=C/n1cnc(-c2cc(C(F)(F)F)cc(C(F)(F)F)c2)n1)c1cccc(F)c1F | 5200 nM |  |
| CCNC(=O)/C(=C/n1cnc(-c2cc(C(F)(F)F)cc(C(F)(F)F)c2)n1)c1ccc(NS(C)(=O)=O)cc1 | 2160 nM |  |
| CN(c1ccc(/C(=C\n2cnc(-c3cc(C(F)(F)F)cc(C(F)(F)F)c3)n2)C(N)=O)cc1)S(C)(=O)=O | 446 nM |  |
| CN(C)C(=O)/C(=C/n1cnc(-c2cc(C(F)(F)F)cc(C(F)(F)F)c2)n1)c1ccc(NS(C)(=O)=O)cc1 | 8960 nM |  |
| COc1c(F)cc(/C(=C\n2cnc(-c3cc(C(F)(F)F)cc(C(F)(F)F)c3)n2)C(N)=O)cc1F | 3470 nM |  |

These reach a lower IC50 (MM1.S). Values come first.

| IC50 (MM1.S) | Compound | further results |
| --- | --- | --- |
| 271 nM | CS(=O)(=O)Nc1cccc(/C(=C\n2cnc(-c3cc(C(F)(F)F)cc(C(F)(F)F)c3)n2)C(N)=O)c1 |  |
| 194 nM | NC(=O)/C(=C/n1cnc(-c2cc(C(F)(F)F)cc(C(F)(F)F)c2)n1)c1cccnc1 |  |
| 146 nM | CCOC(=O)/C(=C/n1cnc(-c2cc(C(F)(F)F)cc(C(F)(F)F)c2)n1)c1ccc(NS(C)(=O)=O)cc1 |  |
| 118 nM | N#Cc1cncc(/C(=C\n2cnc(-c3cc(C(F)(F)F)cc(C(F)(F)F)c3)n2)C(N)=O)c1 |  |
| 64 nM | NC(=O)/C(=C/n1cnc(-c2cc(C(F)(F)F)cc(C(F)(F)F)c2)n1)c1cncnc1 [ELTANEXOR] | IC50 (YT): 103 nM; IC50 [1]: 283 nM; IC50 [2]: 334 nM; IC50 [3]: 287 nM; IC50 (H9): 139 nM; IC50 [4]: 130 nM; IC50 [5]: 261 nM; IC50 (NAMALVA): 93.8 nM |

— ChEMBL document CHEMBL5154835, “Design, synthesis and biological evaluation of sulfonamides inhibitors of XPO1 displaying activity against multiple myeloma cells” (Eur J Med Chem, 2022)
